In experiment [1] the target is Recombinant human MALT-1 (amino acids 340-824) (Homo sapiens (Human), UniProt Q9UDY8). The experiment can be described thus: MALT-1 inhibition assay (fluorogenic substrate Ac-LRSR-Rh110-DP). The format is biochemical. To be noted: recombinant human MALT-1, substrate Ac-LRSR-Rh110-DP. In short, it runs like this: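 MALT-1 at 3 nM final was reacted with 10 μM Ac-LRSR-Rh110-DP, with substrate addition starting the reaction. Incubation ran 60 minutes at 25° C in the dark. Percent inhibition from fluorescence across doses was fitted to a 4-parameter logistic to give IC50.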

Experiment [2] has as its system IL-2 secretion by human effector memory T cells (TEM). As to the kind of experiment: Effector memory T cells IL-2 release assay. The format is cell-based. The settings on record: T-cell; human CD4+ effector memory T cells, CD3/CD28 bead stimulation, 24 h; read-out: CD4TC IL2 IC50. In short, it runs like this: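 Human CD4+ effector memory T cells from healthy-donor buffy coats were stimulated with anti-CD3/CD28 Dynabeads and exposed to 10 semi-log compound doses (0.1% DMSO) for 24 h at 37 °C. Supernatant IL-2 was measured by HTRF, and IC50 came from a 4-parameter logistic fit to maximal IL-2. Viability was checked by flow cytometry.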

We go through 19 molecules from patent US20250051327A1, “MALT-1 MODULATORS” (EXSCIENTIA AI LIMITED, priority 2020, published 2025).

Sequence of Recombinant human MALT-1 (amino acids 340-824) (Q9UDY8 340-824): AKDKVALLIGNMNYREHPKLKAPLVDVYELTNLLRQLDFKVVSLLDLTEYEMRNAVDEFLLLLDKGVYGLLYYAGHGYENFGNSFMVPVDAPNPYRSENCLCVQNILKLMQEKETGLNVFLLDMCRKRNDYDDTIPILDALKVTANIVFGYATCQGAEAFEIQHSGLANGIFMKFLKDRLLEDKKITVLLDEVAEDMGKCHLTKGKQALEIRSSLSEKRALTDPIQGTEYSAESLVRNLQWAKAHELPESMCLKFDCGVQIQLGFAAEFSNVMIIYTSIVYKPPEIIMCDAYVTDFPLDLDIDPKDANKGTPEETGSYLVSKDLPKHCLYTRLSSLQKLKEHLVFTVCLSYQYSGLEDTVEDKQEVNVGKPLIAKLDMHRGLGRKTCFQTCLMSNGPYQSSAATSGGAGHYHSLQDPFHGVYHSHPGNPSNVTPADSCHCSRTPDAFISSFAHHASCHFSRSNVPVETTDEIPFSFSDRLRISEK

As usually defined, the IC50 is the concentration needed to halve the response being measured. As for `CN(C(=O)C1CCOC1)[C@@H](c1ccc(N2CCCc3c2cnc2cc(Cl)nn32)cc1)C(F)(F)F` (stereo partly drawn) [CPD0021568, N-[(1S)-1-(4-{4-chloro-2,3,7,10-tetraazatricyclo[7.4.0.0^2,6]trideca-1(9),3,5,7-tetraen-10-yl}phenyl)-2,2,2-trifluoroethyl]-N-methyloxolane-3-carboxamide], the values for the IC50 in experiment [1] and in experiment [2] were 169 nM and 143 nM, respectively.
Taken in the same sequence, the figures for `CN(C(=O)CC1CCNC1)[C@@H](c1ccc(N2CCCc3c2cnc2cc(Cl)nn32)cc1)C(F)(F)F` (stereo partly drawn) [CPD0021849, N-[(1S)-1-(4-{4-chloro-2,3,7,10-tetraazatricyclo[7.4.0.0^2,6]trideca-1(9),3,5,7-tetraen-10-yl}phenyl)-2,2,2-trifluoroethyl]-N-methyl-2-(pyrrolidin-3-yl)acetamide] were 203 nM and 558 nM.
Consider `CN(C(=O)C1CN(S(C)(=O)=O)C1)[C@@H](c1ccc(N2CCCc3c2cnc2cc(Cl)nn32)cc1)C(F)(F)F` [CPD0073238, N-[(1S)-1-(4-{4-chloro-2,3,7,10-tetraazatricyclo[7.4.0.0^2,6]trideca-1(9),3,5,7-tetraen-10-yl}phenyl)-2,2,2-trifluoroethyl]-1-methanesulfonyl-N-methylazetidine-3-carboxamide], for which the half-inhibitory concentration (IC50) in experiment [1] came out at 87 nM; in experiment [2], 174 nM.
The matching figures for `CN(C(=O)C1CCS(=O)(=O)CC1)[C@@H](c1ccc(N2CCCc3c2cnc2cc(Cl)nn32)cc1)C(C)(F)F` [CPD0072803, N-[(1S)-1-(4-{4-chloro-2,3,7,10-tetraazatricyclo[7.4.0.0^2,6]trideca-1(9),3,5,7-tetraen-10-yl}phenyl)-2,2-difluoropropyl]-N-methyl-1,1-dioxo-1λ^6-thiane-4-carboxamide]: 322 nM and 1890 nM.
The matching figures for `CN(C(=O)CO)[C@@H](c1ccc(N2CCCc3c2cnc2cc(Cl)nn32)cc1)C(F)(F)F` [CPD0019341, N-[(1S)-1-[4-(4-chloro-2,3,7,10-tetrazatricyclo[7.4.0.0^2,6]trideca-1(9),3,5,7-tetraen-10-yl)phenyl]-2,2,2-trifluoro-ethyl]-2-hydroxy-N-methyl-acetamide]: 200 nM and 104 nM.
Taken in the same sequence, the figures for `CC(=O)N1CCC(C(=O)N(C)[C@@H](c2ccc(N3CC[C@H](C)c4c3cnc3cc(Cl)nn43)cc2)C(F)(F)F)CC1` (relative stereo) [CPD0074566, 1-Acetyl-N-[(1S)-1-[4-[(13rel-R)-4-chloro-13-methyl-2,3,7,10-tetrazatricyclo[7.4.0.0^2,6]trideca-1(9),3,5,7-tetraen-10-yl]phenyl]-2,2,2-trifluoro-ethyl]-N-methyl-piperidine-4-carboxamide] were 54 nM and 58 nM.
As to `CN(C(=O)[C@H]1CCS(=O)(=O)C1)[C@@H](c1ccc(N2CCCc3c2cnc2cc(Cl)nn32)cc1)C(F)(F)F` (relative stereo) [CPD0022134, (3rel-R)-N-[(1S)-1-(4-{4-chloro-2,3,7,10-tetraazatricyclo[7.4.0.0^2,6]trideca-1(9),3,5,7-tetraen-10-yl}phenyl)-2,2,2-trifluoroethyl]-N-methyl-1,1-dioxo-1λ^6-thiolane-3-carboxamide], the IC50 in experiment [1] amounted to 134 nM; in experiment [2] it was 175 nM.
Taken in the same sequence, the figures for `COc1ccc2ncc(Nc3ccc([C@@H](N(C)C(=O)[C@H]4CC[S@@](=N)(=O)CC4)C(F)(F)F)cc3)c([C@H](C)OC)c2n1` (relative stereo) [CPD0077186, (1 rel-r,4rel-s)-1-imino-N-methyl-1-oxo-N-[(1R)-2,2,2-trifluoro-1-[4-({6-methoxy-4-[(1 rel-S)-1-methoxyethyl]-1,5-naphthyridin-3-yl}amino)phenyl]ethyl]-1λ^6-thiane-4-carboxamide] were 126 nM and 158 nM.
For the molecule `CCC(O)C(=O)N(C)[C@@H](c1ccc(N2CCCc3c2cnc2cc(Cl)nn32)cc1)C(F)(F)F` (stereo partly drawn) [CPD0021576, N-[(1S)-1-(4-{4-chloro-2,3,7,10-tetraazatricyclo[7.4.0.0^2,6]trideca-1(9),3,5,7-tetraen-10-yl}phenyl)-2,2,2-trifluoroethyl]-2-hydroxy-N-methylbutanamide], the IC50 worked out at 146 nM in experiment [1] and 333 nM in experiment [2].
The matching figures for `CN(C(=O)[C@@H]1CCS(=O)(=O)C1)[C@@H](c1ccc(N2CCCc3c2cnc2cc(Cl)nn32)cc1)C(F)(F)F` (relative stereo) [CPD0022135, (3rel-S)-N-[(1S)-1-(4-{4-chloro-2,3,7,10-tetraazatricyclo[7.4.0.0^2,6]trideca-1(9),3,5,7-tetraen-10-yl}phenyl)-2,2,2-trifluoroethyl]-N-methyl-1,1-dioxo-1λ^6-thiolane-3-carboxamide]: 84 nM and 95 nM.
Taken in the same sequence, the figures for `C[C@@H]1CCN(c2ccc([C@H](N(C)C(=O)[C@H]3CC[S@@](=N)(=O)CC3)C(F)(F)F)cc2)c2cnc3cc(F)nn3c21` (relative stereo) [CPD0074556, (1rel r, 4rel r)1-imino-N-methyl-1-oxo-N-[(1S)-2,2,2-trifluoro-1-[4-[(13 rel R)-4-fluoro-13-methyl-2,3,7,10-tetrazatricyclo[7.4.0.0^2,6]trideca-1(9),3,5,7-tetraen-10-yl]phenyl]ethyl]thiane-4-carboxamide] were 62 nM and 168 nM.
Taken in the same sequence, the figures for `CN(C(=O)CC#N)[C@@H](c1ccc(N2CCCc3c2cnc2cc(Cl)nn32)cc1)C(F)(F)F` [CPD0019342, N-[(1S)-1-(4-{4-chloro-2,3,7,10-tetraazatricyclo[7.4.0.0^2,6]trideca-1(9),3,5,7-tetraen-10-yl}phenyl)-2,2,2-trifluoroethyl]-2-cyano-N-methylacetamide] were 170 nM and 96 nM.
On to `CN(C(=O)[C@H]1CC[S@@+]([O-])CC1)[C@@H](c1ccc(N2CCCc3c2cnc2cc(Cl)nn32)cc1)C(F)(F)F` (relative stereo) [CPD0022136, (1rel-s,4rel-s)-N-[(1S)-1-(4-{4-chloro-2,3,7,10-tetraazatricyclo[7.4.0.0^2,6]trideca-1(9),3,5,7-tetraen-10-yl}phenyl)-2,2,2-trifluoroethyl]-N-methyl-1-oxo-1λ^4-thiane-4-carboxamide], for which the IC50 in experiment [1] came out at 45 nM; in experiment [2], 106 nM.
Taken in the same sequence, the figures for `C[C@H]1CCN(c2ccc([C@H](N(C)C(=O)[C@H]3CC[S@@](=N)(=O)CC3)C(F)(F)F)cc2)c2cnc3cc(Cl)nn3c21` (relative stereo) [CPD0073194, (1rel-s,4rel-s)-N-[(1S)-1-{4-[(13rel-S)-4-chloro-13-methyl-2,3,7,10-tetraazatricyclo[7.4.0.0^2,6]trideca-1(9),3,5,7-tetraen-10-yl]phenyl}-2,2,2-trifluoroethyl]-1-imino-N-methyl-1-oxo-1λ^6-thiane-4-carboxamide] were 20 nM and 51 nM.
Taken in the same sequence, the figures for `CN(C(=O)C1COC1)[C@@H](c1ccc(N2CCCc3c2cnc2cc(Cl)nn32)cc1)C(F)(F)F` [CPD0073083, N-[(1S)-1-(4-{4-chloro-2,3,7,10-tetraazatricyclo[7.4.0.0^2,6]trideca-1(9),3,5,7-tetraen-10-yl}phenyl)-2,2,2-trifluoroethyl]-N-methyloxetane-3-carboxamide] were 90 nM and 146 nM.
The matching figures for `CN(C(=O)CN1C(=O)COC1=O)[C@@H](c1ccc(N2CCCc3c2cnc2cc(Cl)nn32)cc1)C(F)(F)F` [CPD0073237, N-[(1S)-1-(4-{4-chloro-2,3,7,10-tetraazatricyclo[7.4.0.0^2,6]trideca-1(9),3,5,7-tetraen-10-yl}phenyl)-2,2,2-trifluoroethyl]-2-(2,4-dioxo-1,3-oxazolidin-3-yl)-N-methylacetamide]: 174 nM and 513 nM.
Take `CN(C(=O)[C@H]1CC[S@@+]([O-])CC1)[C@@H](c1ccc(N2CCC(C)(C)c3c2cnc2cc(Cl)nn32)cc1)C(F)(F)F` (relative stereo) [CPD0072776, (1rel-s,4rel-s)-N-[(1S)-1-(4-{4-chloro-13,13-dimethyl-2,3,7,10-tetraazatricyclo[7.4.0.0^2,6]trideca-1(9),3,5,7-tetraen-10-yl}phenyl)-2,2,2-trifluoroethyl]-N-methyl-1-oxo-1λ^4-thiane-4-carboxamide]: the IC50 in experiment [1] worked out at 73 nM; in experiment [2], 35 nM.
Taken in the same sequence, the figures for `CN(C(=O)[C@H]1CC[S@](=N)(=O)CC1)[C@@H](c1ccc(N2CCC(C)(C)c3c2cnc2cc(F)nn32)cc1)C(F)(F)F` (relative stereo) [CPD0072783, (1rel-r,4rel-r)-1-imino-N-methyl-1-oxo-N-[(1S)-2,2,2-trifluoro-1-(4-{4′-fluoro-2′,3′,7′,10′-tetraazaspiro[cyclopropane-1,13′-tricyclo[7.4.0.0^2,6]tridecane]-1′(9′),3′,5′,7′-tetraen-10′-yl}phenyl)ethyl]-1λ^6-thiane-4-carboxamide] were 63 nM and 114 nM.
The matching figures for `CN1C(=O)OC[C@@H]1C(=O)N(C)[C@@H](c1ccc(N2CCCc3c2cnc2cc(Cl)nn32)cc1)C(F)(F)F` (relative stereo) [CPD0073570, (4rel-R)-N-[(1S)-1-(4-{4-chloro-2,3,7,10-tetraazatricyclo[7.4.0.0^2,6]trideca-1(9),3,5,7-tetraen-10-yl}phenyl)-2,2,2-trifluoroethyl]-N,3-dimethyl-2-oxo-1,3-oxazolidine-4-carboxamide]: 62 nM and 216 nM.
